Series [1] has as its system plasma protein. The conditions noted are these: cited from earlier work.
Another series relates to LNCaP or PC3 xenografts. The arrangement: method as in PMID 19706750, PMID 23733925. The conditions noted are these: cited from earlier work; for TBR (tumor to muscle ratio) / blood concentration: 4 h post-injection; for TBR (tumor to muscle ratio): calculated from published tumor and skeletal muscle uptake.
A further series addresses PSMA. The arrangement: method as in PMID 19706750, PMID 23733925. To be noted: strongest affinity of all PSMA binders tested; cited from earlier work.
Series [2] has as its system plasma protein. Nature of the series: Plasma protein binding by Rapid Equilibrium Dialysis (RED). The class given is in vitro ADME. The conditions noted are these: 12 kDa plate. Background: Equilibrium dialysis compares concentrations on both sides of a semipermeable membrane.
Text: Plasma protein interactions were quantified for commonly used, commercially available far-red and near-infrared fluorescent dyes. For IRDye 800CW, ZW800, BODIPY 650, Alexa Fluor 680, and integrin conjugates, a Rapid Equilibrium Dialysis (RED) plate (Thermo Scientific) was used following the manufacturer’s protocol.
Rapid Equilibrium Dialysis (RED) was used to quantify plasma protein binding
for various fluorescent dyes (carboxylate form) and fluorescent conjugates.
are available with membrane molecular weight cutoffs of either 8 kDa or 12 kDa.
that many of the fluorescent conjugates are >1 kDa, the 12 kDa plate were used to reduce
The 12 kDa RED plate gave

Where two headings read alike, the source gives them in different places. Marks after values point to notes of the source that are not given here. Where only a bound is given, the exact number is not on record here.

For the compound `O=C([O-])CN(CCN(CC(=O)[O-])CC(=O)[O-])CCN(CC(=O)[O-])CC(=O)[O-].[99Tc+4]` [99mTc-DTPA], the plasma protein binding in the series on plasma protein [1] is recorded as below 5%.
Turning to `CC1(C)C(/C=C/C=C/C=C/C=C2\N(CCCCS(=O)(=O)[O-])c3ccc4ccccc4c3C2(C)C)=[N+](CCCCS(=O)(=O)[O-])c2ccc3ccccc3c21.[Na+]` [ICG dye], the “% Plasma Protein Bound” value in the series with plasma protein [1] (estimates based on a subsaturating concentration of ICG) was 99.5–99.975 ^* %.
With `O=C(O)CC[C@H](NC(=O)N[C@@H](CCCCNCc1ccc(I)cc1)C(=O)O)C(=O)O` [MIP1072], in the series with LNCaP or PC3 xenografts, the “TBR (tumor to muscle ratio)” value is 171 and the blood concentration was 0.06 %ID/g.
The Kd is the concentration at which binding is half-saturated. As for `O=C(O)CC[C@H](NC(=O)N[C@@H](CCCCNC(=O)Nc1ccc(I)cc1)C(=O)O)C(=O)O` [MIP1095], the skeletal muscle uptake in the series with LNCaP or PC3 xenografts (highest of the PSMA set) is 0.26 %ID/g. The Kd on PSMA was 0.24 nM.
As for `O=C(O)CC[C@H](NC(=O)N[C@@H](CCC(=O)N[C@@H](CCCCN(Cc1nccn1CC(=O)N(CC(=O)O)CC(=O)O)Cc1nccn1CC(=O)N(CC(=O)O)CC(=O)O)C(=O)O)C(=O)O)C(=O)O` [MIP1404], in the series with LNCaP or PC3 xenografts, the “TBR (tumor to muscle ratio)” value was 157 and the blood concentration is recorded as 0.02 %ID/g.
As to `O=C(O)CC[C@H](NC(=O)N[C@@H](CCC(=O)NC(CCCCN(Cc1nccn1CC(=O)O)Cc1nccn1CC(=O)O)C(=O)O)C(=O)O)C(=O)O` (stereo partly shown) [MIP1427], in the series on LNCaP or PC3 xenografts, the “TBR (tumor to muscle ratio)” value is reported as 31 and the blood concentration is 0.28 %ID/g.
As for `CC1(C)C(=CC=CC=CC=CC2=[N+](CCCCS(=O)(=O)[O-])c3ccc(C(=O)NC[C@H](O)[C@@H](O)[C@H](O)C(O)CO)cc3C2(C)C)N(CCCCS(=O)(=O)[O-])c2ccc(C(=O)NCC(O)C(O)C(O)[C@H](O)CO)cc21.[Na+]` (stereo partly shown) [SIDAG dye], in the series with plasma protein [1] (reported bound fraction in the plasma, discussed in SI), the “% Plasma Protein Bound” value was 57 ^* %.
For IRDye 800CW carboxylate, the “% Plasma Protein Bound” value with plasma protein [2] is 89 ± 3%.
With Inulin, the plasma protein binding entry with plasma protein [1] (classic example, no reference given) is “no measurable plasma protein binding”.

The values are drawn from PMC4857130, “Mechanistic and quantitative insight into cell surface targeted molecular imaging agent design” (Scientific Reports, 2016).
